Data: PubChem BioAssay AID463199 (Broad Institute, 2010)
The source made the active and inactive calls.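 How the source made its calls: active means AC50, the dose giving half-maximal effect, exceeds a fixed cutoff for a compound that rescues yeast growth under heat; inactive means the rest, inconclusive results apart.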

Tested on: S. cerevisiae Burl-1 ts mutant growth, BacTiter-Glo, 38.5C 24 h
Assay: restored growth of temperature-sensitive Burl-1 yeast – whole organism, S. cerevisiae, Burl-1 ts mutant, luminescence, counter-screen for SUMOylation pathway inhibitor project, dose response (AID 463199)

Cc1nc(CC(=O)N/N=C/c2ccc(OCC(=O)O)cc2)cs1
AC50: > 42 µM (inactive)

CCOC(=O)c1ccccc1NC(=O)C1CC(=O)N(C2CCCCC2)C1 (stereo not drawn)
AC50: > 42 µM (inactive)

NC1=NC(=Nc2ccc(S(N)(=O)=O)cc2)c2ccccc21
AC50: > 21 µM (inactive)

CN(C)c1ccc(NS(=O)(=O)c2cccc(Cl)c2)cc1
AC50: > 42 µM (inactive)

O=S1(=O)CC(N2CCCCC2)C(N2CCCCC2)C1 (stereo not drawn)
AC50: > 42 µM (inactive)

O=C(c1cc(-c2ccc(Cl)c(Cl)c2)on1)N1CCN(c2ccccc2)CC1
AC50: > 42 µM (inactive)

CC(Cc1ccc(O)c(O)c1)C(C)Cc1ccc(O)c(O)c1 (stereo not drawn)
AC50: > 42 µM (inactive)

CC(=O)Nc1cccc(C(=O)OCC(=O)NCc2ccc(F)cc2)c1
AC50: > 42 µM (inactive)

CC(C)CCOCc1nc2sc3c(c2c(=O)[nH]1)CCC(C)C3 (stereo not drawn)
AC50: > 42 µM (inactive)

Cn1cccc1CC(=O)N/N=C/c1cccc([N+](=O)[O-])c1
AC50: > 42 µM (inactive)

COC(=O)CCC(=O)OC1(C)C(=O)C=C2C=C(C3CC3)N(Cc3ccc4c(c3)OCO4)C=C2C1=O (stereo not drawn)
AC50: > 42 µM (inactive)

COc1cc(COc2ccc3c(C)c(CC(=O)O)c(=O)oc3c2C)cc(OC)c1OC
AC50: > 42 µM (inactive)

CC1=CC(C)(C)N2C(=O)C3(NCCc4c3[nH]c3ccccc43)c3cc(C)cc1c32 (stereo not drawn)
AC50: > 42 µM (inactive)

CC(C)Sc1ccc(C(=O)Nc2ccc(F)cc2F)cn1
AC50: > 42 µM (inactive)

CCCOc1ccc([N+](=O)[O-])c(N)c1
AC50: > 42 µM (inactive)

COC(=O)c1ccccc1NC(NC(=O)c1ccco1)C(=O)c1ccccc1 (stereo not drawn)
AC50: > 42 µM (inactive)

CCC(C)NC(=O)CSc1nnc(-c2cc(-c3ccc(C)cc3)nc3ccccc23)n1N (stereo not drawn)
AC50: > 42 µM (inactive)

COc1ccc(NC(=O)C(c2ccccc2)N2CCN(c3ccccn3)CC2)cc1Cl (stereo not drawn)
AC50: > 42 µM (inactive)

CCOC(=O)c1nc(Nc2ccccc2CC)c2ccccc2n1
AC50: > 42 µM (inactive)

C=CCC(NCCCO)c1cccc(OC)c1OC (stereo not drawn)
AC50: > 42 µM (inactive)

c1ccc(OCCCc2nc(-c3cccnc3)no2)cc1
AC50: > 42 µM (inactive)

COCCN1C=C(C(=O)OC)C(c2cc3c(cc2Br)OCO3)C(C(=O)OC)=C1
AC50: > 42 µM (inactive)

Cc1ccc(SCCNC(=O)CN2C(=O)c3ccccc3S2(=O)=O)cc1
AC50: > 42 µM (inactive)

Cn1c(CCN2CCOCC2)nc2cc(NC(=O)COc3ccccc3)ccc21
AC50: > 42 µM (inactive)

COc1ccc(NC(=O)CSc2nnc(-c3ccccn3)n2-c2ccccc2)cc1OC
AC50: > 42 µM (inactive)

Cc1cccc(NC(=S)NCc2ccco2)c1C
AC50: > 42 µM (inactive)

CCc1cc(/C(Cc2ccccn2)=N\O)c(O)cc1O
AC50: > 42 µM (inactive)

Cc1cccc(N2CCN(C(=O)CN3C(=O)NC(C)(C)C3=O)CC2)c1C
AC50: > 42 µM (inactive)

Cc1cc(C)n(C(=O)CNC(=O)c2ccc3c(c2)OCCO3)n1
AC50: > 42 µM (inactive)

Cc1cccc(NC(=S)NC(=O)/C=C/c2ccco2)c1
AC50: > 42 µM (inactive)

CCn1c(SCC(=O)N/N=C/c2ccccc2OCC(=O)O)nnc1-c1ccc(C(C)(C)C)cc1
AC50: > 42 µM (inactive)

N=c1c[n+](C2CCCCC2)[n-]o1
AC50: > 42 µM (inactive)

CCCCn1c(N)c(N(CCOC)C(=O)c2ccc(Cl)c(S(=O)(=O)N3CCCCC3)c2)c(=O)[nH]c1=O
AC50: > 42 µM (inactive)

Cc1ccc(NC(=O)CN(C)C(=O)c2cccc(Br)c2)cc1
AC50: > 42 µM (inactive)

CCC(C)[C@H]1COCCS(=O)(=O)N1Cc1ccc(C)cc1 (stereo partly drawn)
AC50: > 42 µM (inactive)

COc1cc(-c2nnc(SCC#CCO)o2)cc(OC)c1OC
AC50: > 42 µM (inactive)

O=C(O)c1ccc(S(=O)(=O)N2CCN(c3ccccn3)CC2)cc1
AC50: > 42 µM (inactive)

CNS(=O)(=O)c1cccc(C(=O)NCC2(N3CCCCC3)CCCCC2)c1
AC50: > 42 µM (inactive)

O=C(O)Cc1sc(Nc2ccccc2)nc1-c1cccs1
AC50: > 42 µM (inactive)

COc1ccc(NC(=O)c2cc(C)no2)cc1Cl
AC50: > 42 µM (inactive)

CCCCn1c2c(c(=O)n(C)c1=O)C(c1ccc(OC)cc1)N1CCCCCC1=N2 (stereo not drawn)
AC50: > 42 µM (inactive)

O=C(CSc1nnc(-c2cccs2)n1-c1ccccc1)c1ccc2c(c1)OCCO2
AC50: > 42 µM (inactive)

COc1ccc(CN2CCN(C(=O)c3cc(-c4cccnc4)nc4ccc(Cl)cc34)CC2)c(OC)c1OC
AC50: > 42 µM (inactive)

O=C(NCCCn1ccnc1)c1ccc(Cl)cc1
AC50: > 42 µM (inactive)

N#CC1=C(N)Oc2c(ccc3ccccc23)C1c1cccs1 (stereo not drawn)
AC50: > 42 µM (inactive)

CCN(CC(=O)N1CCCCCC1)S(=O)(=O)c1ccc(Cl)cc1
AC50: > 42 µM (inactive)

Cc1ccc(C(C(=O)NC2CCCCC2)N(CCC(C)C)C(=O)CNC(=O)c2ccco2)o1 (stereo not drawn)
AC50: > 42 µM (inactive)

Cc1ccccc1OCc1nc(-c2ccccc2)no1
AC50: > 42 µM (inactive)

COc1ccc(CN(CC(=O)NCC2CCCO2)C(=O)CCC(=O)Nc2cc(C)on2)cc1 (stereo not drawn)
AC50: > 42 µM (inactive)

O=C(O)COc1ccc(=O)n(-c2ccccc2)n1
AC50: > 42 µM (inactive)

COc1ccc(-c2c(C)nn3c(C)cc(C)nc23)cc1
AC50: > 42 µM (inactive)

Cc1c(C(=O)OCC(=O)Nc2ccc(S(N)(=O)=O)cc2)oc2c1ccc1ccccc12
AC50: > 42 µM (inactive)

CCOC(=O)Cn1c(=O)n(Cc2ccco2)c(=O)c2ccc(C(=O)NCCc3ccccc3)cc21
AC50: > 42 µM (inactive)

CCOc1ccc(Cn2c(SCCCCC#N)nc3c2c(=O)n(C)c(=O)n3C)cc1OCC
AC50: > 42 µM (inactive)

Cc1ccccc1Nc1c([N+](=O)[O-])ccc2c1=NC1(CCCCC1)N=2
AC50: > 42 µM (inactive)

COc1ccccc1OCCCn1cc(C#N)c2ccccc21
AC50: > 42 µM (inactive)

O=C1CN(C(=O)COC(=O)c2cccc(S(=O)(=O)NCc3ccccc3)c2)c2ccccc2N1
AC50: > 42 µM (inactive)

CC(NC(=O)c1cnc2n(c1=O)CCS2)c1ccccc1 (stereo not drawn)
AC50: > 42 µM (inactive)

Cc1sc2nc(SCC(=O)NCCOCCO)n(C)c(=O)c2c1C
AC50: > 42 µM (inactive)

OCCN1CN=C(Nc2nc3ccccc3o2)NC1
AC50: > 42 µM (inactive)

COc1ccc(CCNC(=O)Cn2nnc(-c3ccc(N4CCOCC4)cc3)n2)cc1OC
AC50: > 42 µM (inactive)

CCS(=O)(=O)c1nc(S(=O)(=O)c2ccc(Cl)cc2)c(N2CCc3ccccc3C2)s1
AC50: > 42 µM (inactive)

CCc1ccc(NC(=O)N2CCC(c3ccccc3)C2)cc1 (stereo not drawn)
AC50: > 42 µM (inactive)

COc1ccc(OC(=O)c2ccc(Cl)cc2)c(C(C)=O)c1
AC50: > 42 µM (inactive)

CC1CCC(C(C)C)C(OC(=O)COC(=O)c2cccn2C)C1 (stereo not drawn)
AC50: > 42 µM (inactive)

CN1C(=O)C(O)(CC(=O)c2ccccc2O)c2cc(Br)ccc21 (stereo not drawn)
AC50: > 42 µM (inactive)

CCCCCNC(=O)c1ccc2c(=O)n(CC3CCCO3)c(=O)[nH]c2c1 (stereo not drawn)
AC50: 7.49 µM

CCC1(c2ccccc2)NC(=O)N(CC(=O)N(C)CC(=O)Nc2ccc(F)c(F)c2F)C1=O (stereo not drawn)
AC50: > 42 µM (inactive)

CCCCC(=O)NCCc1ccc(S(N)(=O)=O)cc1
AC50: > 42 µM (inactive)

Cc1ccc(NC(=O)Cn2c(CCC(=O)O)ccc2-c2cccs2)cc1
AC50: > 42 µM (inactive)

Cc1cccc(N2CN=c3s/c(=C\c4ccccn4)c(=O)n3C2)c1
AC50: > 42 µM (inactive)

CCOC(=O)CSc1nc2ccccc2c(=O)n1CC(C)C
AC50: > 42 µM (inactive)

COc1ccc(CCC(=O)Nc2ccc3c(c2)OCO3)cc1
AC50: > 42 µM (inactive)

Cc1ccnc(NC(=O)CC(c2ccccc2)c2ccccc2)n1
AC50: > 42 µM (inactive)

Cc1nc(-c2ccncc2)sc1C(=O)Nc1ccc(Br)cc1
AC50: > 42 µM (inactive)

COCCn1c(=NC(=O)c2ccc(S(=O)(=O)N3CCOCC3)cc2)sc2cc(S(N)(=O)=O)ccc21
AC50: > 42 µM (inactive)

S=c1[nH]nc(-c2ccccn2)n1/N=C/c1ccccc1
AC50: > 42 µM (inactive)

O=c1c2ccccc2nc(COc2ccccc2)n1/N=C/c1cn[nH]c1-c1ccccc1
AC50: > 42 µM (inactive)

O=C(NCCc1c[nH]c2ccccc12)c1cc(S(=O)(=O)N2CCCCC2)ccc1N1CCOCC1
AC50: > 42 µM (inactive)

COc1ccc(CCNC(=O)CC2C(=O)NCCN2CC(C)(C)C)cc1 (stereo not drawn)
AC50: > 42 µM (inactive)

c1ccc(-c2cc3cc4c(cc3cn2)OCO4)cc1
AC50: > 42 µM (inactive)

Cc1ccc2nc(NC(=O)CNS(=O)(=O)c3ccc(Br)s3)sc2c1
AC50: > 42 µM (inactive)

O=C(NCc1ccccc1)c1cccc(COc2ccc(Cl)cc2)c1
AC50: > 42 µM (inactive)

Cc1c(C(=O)N2CCN(CCc3ccccc3)CC2)oc2ccccc12
AC50: > 42 µM (inactive)

Oc1cccc(/C=N/N2CCN(c3ccccn3)CC2)c1
AC50: > 21 µM (inactive)

CC(C)[C@H](NC(=O)C1(c2ccccc2)CCN(C(=O)OC(C)(C)C)CC1)C(=O)O
AC50: > 42 µM (inactive)

Cc1ccc(/C=C/C(=O)OCC(=O)N(CC(C)C)c2c(N)n(Cc3ccccc3)c(=O)[nH]c2=O)o1
AC50: > 21 µM (inactive)

CCNC(=O)/C(C#N)=C/c1c(N2CCCCCC2)nc2ccccn2c1=O
AC50: > 42 µM (inactive)

CCCCn1c(N)c(N(CC(C)C)C(=O)c2cc(-c3ccc(F)cc3)nc3ccccc23)c(=O)[nH]c1=O
AC50: > 42 µM (inactive)

Cc1sc(-n2c(C)cc(C=C3C(=O)NC(=O)NC3=O)c2C)c(C#N)c1C
AC50: > 42 µM (inactive)

CC(=O)c1ccc(N2CCN(CC(=O)Nc3cc(C)on3)CC2)cc1
AC50: > 42 µM (inactive)

NC(=O)c1nsc(C(=O)N(Cc2ccc(F)cc2)C(C(=O)NC2CCCC2)c2ccco2)c1N (stereo not drawn)
AC50: > 42 µM (inactive)

CCc1cc2c(=O)c(-c3nc4ccccc4[nH]3)coc2c(CN2CCCCC2)c1O
AC50: > 42 µM (inactive)

Cc1ccc(O)c(CNc2nc3ccccc3n2C)c1
AC50: > 42 µM (inactive)

O=C(COC(=O)[C@@H]1CC(O)CN1S(=O)(=O)c1ccccc1[N+](=O)[O-])Nc1ccc2ccccc2c1 (stereo partly drawn)
AC50: > 42 µM (inactive)

CCOc1ccc(-c2nc3n(c(=O)c2C#N)CCS3)cc1
AC50: 40.7 µM

Cc1ccc(N(CC(=O)Nc2cccc(C)c2)S(=O)(=O)c2cccc3nonc23)cc1
AC50: > 21 µM (inactive)

COc1ccccc1CNc1ncnc2c1nnn2Cc1ccccc1
AC50: > 42 µM (inactive)
